From patent US3937838A, “Orally active bronchospasmolytic compounds and their preparation” (priority 1966, dated 1976)
Entries after “also recorded” stand apart in the source; their conditions may differ. Read-outs that look alike come from different tables or passages of the source.

Columns and labels:
[1] = system: right auricle from the guinea pig; test: Dual preparation test in vitro, effect on auricle (Example 5c); details: slow infusion, FIGS. 2-4; for cardiac stimulation in relation to bronchodilator effect: both preparations in same bath
Text: [This procedure is more fully described below in Example 5 (b)].
FIG. 2 illustrates the effect of epinephrine (EPE) and terbutaline on spirally cut trachea and right auricle from the guinea pig. Both preparations are dissected out from the same animal and run under identical experimental conditions;
Both preparations are dissected out from the same animal, and run under identical experimental conditions;
Both preparations are dissected out from the same animal and run under identical experimental conditions;
The relation between the heart stimulatory effect and bronchodilator effect was studied in vitro on auricle-trachea-preparation from the guinea pig in order to compare the effect on the heart and the effect on the bronchial muscle under identical experimental conditions. Both spontaneously bearing auricle and spirally-cut trachea were placed in the same bath in Krebs solution. Both preparations were taken from the same animal.
The compound to be tested was slowly infused into the bathing solution and the tension was measured for each of the auricle and trachael preparations.
In carrying out this dual preparation test, epinephrine was used as a reference. […] Infusion of epinephrine was made over a period of ten minutes. After washing and recovery, the test solution was infused in the same manner and the effect of the test compound was compared with the effect of epinephrine.
Referring more specifically to FIG. 2, the upper portion of each chart thereof represents the tension continuously recorded of the auricle preparation (shaded area 1 for the effect of epinephrine on the auricle, ref. no. 2 for the effect of terbutaline infused at a rate of 0.2 μg/min on the auricle, and ref. no. 3 for the effect of terbutaline infused at a rate of 0.375μg/min on the auricle).

isolated rabbit heart = test: Effect on isolated heart, Langendorff preparation (Example 5d); details: injection; FIG. 5
Method: The effect of the compound of the present invention was also studied on isolated rabbit heart (Langendorff preparation) the method used as described by Anden et al. (Acta Pharmacol. et Toxicol., 21 (1964) page 247). In this procedure, the isolated heart is mounted in a Krebs solution and the test compound is injected into it. Measurements are continuously recorded of the rate and force of contraction.
The tests using epinephrine establish a standard of comparison to evaluate subsequent test compounds in the same preparation.

adrenergic receptors = details: cited from earlier work
[2] = system: sphincter of Oddi (choledochoduodenal sphincter); test: Effect on sphincter of Oddi (Example 5e); type: in vivo, cat; details: anesthetized cats; for duodenal pressure / motility / heart rate: concurrent with sphincter effect; for common bile duct pressure / sphincter relaxation: i.v., 1 μg/kg terbutaline in FIG. 7, FIG. 8
Method: The effect of terbutaline on the choledochoduodenal sphincter of young, healthy cats was studied. Young animals weighing at least 2.0 kg were used. After being deprived of food but not water for 24 hours, they were anesthetized with pentobarbitol (40 mg/kg i.p.). The terminal portion of a common bile duct was isolated and cannulated toward the duodenum. The hepatic part of the bile duct was drained to prevent distention. The pressure was continuously recorded by the open tip technique. Details of the experimental set up have been published by Liedberg and Halabi [Acta. Chir. Scand. 136 (1970) page 208.] Heart rate was recorded on all experiments and blood pressure by arterial cannulation in some.
Referring to the upper curve of FIGS. 7 and 8, the heart rate is continuously recorded. Concurrent records are made in the middle curve and lower curve of the pressures measured respectively in the common bile duct and in the lower duodenum.
As a control in this test, the animal was also treated with 0.5 international units per kg of cholecystokinin (CCK).
In a second test of the effect of terbutaline and isoprenaline on the sphincter (see FIG. 8), the duodenal motility was measured without being affected by CCK.

bronchial asthma = test: Clinical study in asthmatic patients (Example 6); type: in vivo, human
Method: All the patients were hospitalized for severe bronchial asthma. Before the patients were selected for the trial, spirometry was performed before and after isoprenaline inhalations to make sure that their obstruction was at least partly reversible by bronchodilating drugs. The tests were performed when the patients were in a relatively steady state of moderate asthmatic discomfort. Every morning during the trial control measurements of forced expiratory volume in one second (FEV1.0) were made. These values had to be less than 70% of the predicted normal value taking in consideration sex, age and heights. All the patients were under treatment of different drugs for their asthma. Other bronchodilating drugs were withdrawn at least 6 hours before the start of the measurements. Most of the patients were treated with steroids, antibiotics and expectorants before the start of the trial. This regimen was continued unchanged during the trial period.
Twenty-four took part in the study, 10 male and 14 female. Average age was 51 years (range 15-71 years), mean body weight 64 kg (range 44-88 kg.) and height 166 cm (range 150-187 cm).
The trial was performed as a double blind study during three consecutive days with the patients serving as their own control. […] The order of treatment was randomized according to the principle of Latin squares.
Lung function tests were made immediately before the administration of the tablets and after 1, 2, 3, 5 and 7 hours. FEV1.0 was measured using a Vitalograph spirometer. The highest value of three measurements on each occasion was used in the calculations. All the patients had been trained to perform the tests the day before the start of the trial. After 3 and 7 hours, the patients were questioned for side effects. The same, specially trained, nurse assisted throughout the whole investigation.
The "Student's" t-test was used for statistical evaluation of the results. The degree of significance for the differences is given as almost significant (p<0.05^x) significant (p<0.01^xx) and highly significant (p<0.001^xxx).

guinea pig trachea = test: Bronchospasmolytic effect in vitro (Example 13); details: per se
Method: The trachea from a guinea pig was dissected out and spirally cut. It was mounted in a water-jacketed bath (37°C.) in Krebs solution and aerated with oxygen (95%) and carbon dioxide (5%). Pilocarpine (2 μg/ml) was added. The load was adjusted to about 2 g and relaxations in the trachea were recorded by means of a Grass force displacement transducer and a Grass polygraph model 5 (see Example 5 above). The cumulative method was used (-)-Epinephrine was used as reference. The comparisons presented in Table 7 are based on ED50 -values.

[3] = system: bronchoconstriction by histamine aerosol; test: Protecting effect against histamine aerosol in guinea pigs (Example 15); type: in vivo, guinea pig; details: Cavia porcellus, read-out: ED50 (protecting 50 percent of the animals for more than 4 minutes)
Text: Male guinea pigs (200--300 g) were used. Bronchoconstriction was produced by letting the animals inhale a histamine aerosol.

[4] = system: isolated guinea pig heart; test: Effect on isolated heart from guinea pig, Langendorff (Example 16); details: per se
Method: The isolated guinea pig heart was perfused according to Langendorff. The method used is described by Anden et al. [Acta Pharmacol. et Toxicol. 21, 247, (1964)]. Contractions in the heart were recorded by a force displacement transducer and a Grass polygraph model 5. The recovery of the heart was tested with (-) epinephrine between every dose of the substance tested. Terbutaline was used as reference.

[5] = Toxicity study in mice (Example 18); type: in vivo; details: mouse, in vivo, read-out: LD 50 + Standard error
Method: (§1) The toxicity was studied in mice (NMRI, male, 18-28 g) 24 hours after i.v. and oral administration. The animals were observed during five days. No further deaths occurred.

mice = test: Toxicity study in mice (Example 18); type: in vivo; details: mouse, in vivo, po
Method: as §1

CNCC(O)c1ccc(O)c(O)c1 (stereo not shown) [epinephrine, 1-(3',4'-dihydroxyphenyl)-2-(methylamino)-ethanol]
cardiac stimulation in relation to bronchodilator effect [1]: affecting both the auricle and tracheal preparations over the concentration range tested
cardiac stimulation in relation to bronchodilator effect ([1]; listed as Epinephrine): bronchodilation and heart muscle stimulation in the same concentration range
effect on auricle (tension) ([1]; 0.375 μg/min where stated): nearly doubled the maximum tension of the auricle
effect on rate and force of isolated heart (isolated rabbit heart): increase in the heart rate; also recorded: increase in the force of contraction; also recorded: readily observable
adrenergic receptors stimulated (adrenergic receptors; background): stimulates α- and β1 - as well as β2 -receptors
cardiovascular side effects (adrenergic receptors; background): tachycardia, increased cardiac output and sometimes an increase in blood pressure
duration of bronchodilator activity (adrenergic receptors; background): relatively short-lived

cholecystokinin [reference compound]
duodenal pressure / motility [2]: markedly stimulated the duodenum
common bile duct pressure / sphincter relaxation [2]: relaxed the sphincter

CNC(C)C(O)c1ccccc1 (stereo not shown) [Ephedrine, 1-phenyl-2-(methylamino)propanol]
cardiovascular side effects (adrenergic receptors; background): palpitations and tachycardia
CNS side effects (adrenergic receptors; background, oral): anxiety and sleeping disturbances

CC(C)NCC(O)c1cc(O)cc(O)c1 (stereo not shown) [orciprenaline, 1-(3',5'-dihydroxyphenyl)-2-(isopropylamino)-ethanol, reference compound]
cardiac stimulation in relation to bronchodilator effect [1]: strong cardiac stimulants in relation to their bronchodilator effect
time of maximal response (FEV1.0) (bronchial asthma; oral single dose): 2 h
increase of FEV1.0 (bronchial asthma; oral, terbutaline 5.0 mg, orciprenaline 20 mg, FIG. 9): clearcut increase of the spirometric values
bronchodilator potency (adrenergic receptors; background, versus previously used bronchodilators): less potency than previously used bronchodilators

CC(C)NCC(O)c1ccc(O)c(O)c1 (stereo not shown) [isoprenaline, 1-(3',4'-dihydroxyphenyl)-2-(isopropylamino)-ethanol, reference compound]
cardiac stimulation in relation to bronchodilator effect [1]: strong cardiac stimulants in relation to their bronchodilator effect
duodenal pressure / motility [2]: inhibited duodenal motility
heart rate [2]: marked tachycardia
duodenal pressure / motility ([2]; listed as Isoprenaline): differed markedly from terbutaline in its effect on heart rate and intestinal activity
heart rate ([2]; listed as Isoprenaline): differed markedly from terbutaline in its effect on heart rate and intestinal activity
common bile duct pressure / sphincter relaxation [2]: reduces common bile duct pressure
adrenergic receptors stimulated (adrenergic receptors; background): stimulates β1 and β2 -receptors equally
duration of bronchodilator activity (adrenergic receptors; background): relatively short-lived
cardiovascular side effects (adrenergic receptors): cardiovascular stimulation, especially tachycardia

CC(C)(C)NCC(O)c1cc(OC(=O)C(C)(C)C)cc(OC(=O)C(C)(C)C)c1 (stereo not shown) [KWD2085]
bronchospasmolytic effect in vitro relative to terbutaline (guinea pig trachea): weaker bronchospasmolytic effect in vitro than terbutaline
ED50 ([3]; 0.5 h, oral, 30 minutes before histamine): 0.24 mg/kg
ED50 ([3]; ip, 0.25 h, i.p., 15 minutes before histamine): 0.13 mg/kg
direct heart effect relative to terbutaline [4]: much less direct heart effect
LD50 at 24 h ([5]; iv): 23 ± 2 mg/kg
LD50 at 24 h ([5]; po): 2200 mg/kg
oral absorption in comparison with terbutaline (mice): improved oral absorption in comparison with terbutaline
